“And” between values parts separate entries of the source, which are not always exact repeats. Equal entries are not always repeated. Where a SMILES comes first, the peptide text is derived from it. Where no end group is shown, it is not given here.
Tests used:
soluble HLA-B*0702 = soluble HLA-B*0702 (Homo sapiens, UniProt P01889); test: Fluorescence polarization; format: binding
soluble HLA-A*0201 = soluble HLA-A*0201 (Homo sapiens, UniProt P04439, D140Y/D185E/D98H/E176V/E277Q/G131W/G231S/I119V/I121R/I166T/I218V/L300P/L318F/N151K/N90K/P208A/P217A/Q86G/Q94H/R138H/R169H/T345S); test: Fluorescence polarization; format: binding
[1] = system: autologous PBMC of subject 8; test: Memory; format: cell-based, human
[2] = molecular target: soluble HLA A*0201 or B*0702 (allele not stated for the peptide family); test: fluorescence polarisation
[3] = over the course of infection, time points as worded

Compound | IC50 (soluble HLA-B*0702) | other results
CC(C)C[C@H](NC(=O)[C@@H]1CCCN1C(=O)[C@@H](NC(=O)[C@H](CCC(N)=O)NC(=O)[C@@H]1CCCN1C(=O)[C@H](CCCNC(=N)N)NC(=O)[C@@H](NC(=O)[C@@H]1CCCN1C(=O)[C@@H](N)Cc1ccccc1)C(C)C)C(C)C)C(=O)O | 6.76 µM | –
CC(C)C[C@H](NC(=O)[C@H](CCCCN)NC(=O)[C@H](Cc1ccccc1)NC(=O)[C@H](CS)NC(=O)[C@H](Cc1c[nH]c2ccccc12)NC(=O)CNC(=O)[C@H](Cc1ccccc1)NC(=O)[C@@H](NC(=O)[C@H](CC(C)C)NC(=O)[C@@H]1CCCN1)[C@@H](C)O)C(=O)O | – | IC50 (soluble HLA-A*0201): 3020 µM
CC[C@H](C)[C@H](NC(=O)[C@H](CCCNC(=N)N)NC(=O)[C@H](CCCCN)NC(=O)[C@H](CCCNC(=N)N)NC(=O)[C@@H](NC(=O)[C@H](CC(N)=O)NC(=O)[C@H](CC(N)=O)NC(=O)[C@H](CC(N)=O)NC(=O)[C@@H]1CCCN1C(=O)[C@@H](N)CCCNC(=N)N)[C@@H](C)O)C(=O)O | 20.9 µM | –
CC(C)C[C@H](NC(=O)[C@@H](NC(=O)[C@H](CCCNC(=N)N)NC(=O)[C@@H]1CCCN1C(=O)[C@@H](N)CO)[C@@H](C)O)C(=O)N[C@@H](CC(N)=O)C(=O)N[C@@H](C)C(=O)N[C@@H](Cc1c[nH]c2ccccc12)C(=O)N[C@H](C(=O)O)C(C)C | 15.1 µM | –
CC(C)C[C@H](NC(=O)[C@@H](N)[C@@H](C)O)C(=O)N[C@@H](CC(N)=O)C(=O)N[C@@H](C)C(=O)N[C@@H](Cc1c[nH]c2ccccc12)C(=O)N[C@H](C(=O)N[C@@H](CCCCN)C(=O)N[C@H](C(=O)N[C@H](C(=O)O)C(C)C)C(C)C)C(C)C | – | IC50 (soluble HLA-A*0201): 14.5 µM
CC[C@H](C)[C@H](NC(=O)CNC(=O)[C@@H]1CCCN1C(=O)CNC(=O)[C@@H]1CCCN1C(=O)[C@@H](N)[C@@H](C)O)C(=O)N[C@@H](CCCNC(=N)N)C(=O)N[C@@H](Cc1ccccc1)C(=O)N1CCC[C@H]1C(=O)N[C@@H](CC(C)C)C(=O)O | 2.51 µM | –
CC[C@H](C)[C@H](NC(=O)CNC(=O)[C@@H]1CCCN1C(=O)CNC(=O)[C@@H]1CCCN1C(=O)[C@@H](N)[C@@H](C)O)C(=O)N[C@@H](CCCNC(=N)N)C(=O)N[C@@H](Cc1ccc(O)cc1)C(=O)N1CCC[C@H]1C(=O)N[C@H](C(=O)O)C(C)C | 5.5 µM | –
CC(C)C[C@H](NC(=O)[C@@H]1CCCN1C(=O)[C@H](Cc1ccccc1)NC(=O)[C@H](CCCNC(=N)N)NC(=O)[C@@H]1CCCN1C(=O)CNC(=O)[C@@H]1CCCN1C(=O)CNC(=O)[C@@H]1CCCN1C(=O)[C@@H](N)[C@@H](C)O)C(=O)O | 4.57 µM | –
CC(C)C[C@H](NC(=O)[C@@H]1CCCN1C(=O)[C@H](Cc1ccccc1)NC(=O)[C@H](CCCNC(=N)N)NC(=O)[C@@H](NC(=O)CNC(=O)[C@@H]1CCCN1C(=O)CNC(=O)[C@@H]1CCCN1C(=O)[C@@H](N)[C@@H](C)O)[C@@H](C)O)C(=O)O | 2.88 µM | –
CC(C)C[C@H](NC(=O)[C@@H]1CCCN1C(=O)[C@H](Cc1ccc(O)cc1)NC(=O)[C@H](CCCNC(=N)N)NC(=O)[C@@H](NC(=O)CNC(=O)[C@@H]1CCCN1C(=O)CNC(=O)[C@@H]1CCCN1C(=O)[C@@H](N)[C@@H](C)O)C(C)C)C(=O)O | 4.37 µM | –
CC(C)C[C@H](NC(=O)[C@H](CCCCN)NC(=O)[C@H](Cc1ccccc1)NC(=O)[C@H](CS)NC(=O)[C@H](Cc1c[nH]c2ccccc12)NC(=O)CNC(=O)[C@H](Cc1ccccc1)NC(=O)[C@H](CS)NC(=O)[C@H](CC(C)C)NC(=O)[C@@H]1CCCN1)C(=O)O (H-PLCFGWCFKL-OH; N-terminus and C-terminus assumed) | – | memory T cell response (IFN-γ ELISPOT), in words [1, 3]: no-to-low memory responses
CSCC[C@H](NC(=O)[C@@H]1CCCN1)C(=O)N[C@@H](CS)C(=O)N[C@@H](Cc1ccccc1)C(=O)NCC(=O)N[C@@H](Cc1c[nH]c2ccccc12)C(=O)N[C@@H](CS)C(=O)N[C@@H](Cc1ccccc1)C(=O)N[C@@H](CCCCN)C(=O)N[C@@H](CC(C)C)C(=O)O (H-PMCFGWCFKL-OH; N-terminus and C-terminus assumed) | – | memory T cell response (IFN-γ ELISPOT), in words ([1]; early cART / following cART (8.3–10.1 yr)): recovered during therapy; memory T cell response (IFN-γ ELISPOT), in words ([1]; late cART (>12.4 yr)): eventual loss; memory T cell response (IFN-γ ELISPOT), in words [1, 3]: no-to-low memory responses
CSCC[C@H](NC(=O)[C@@H]1CCCN1C(=O)[C@@H](N)CCCNC(=N)N)C(=O)N[C@H](C(=O)N[C@@H](Cc1ccc(O)cc1)C(=O)N[C@@H](CCCCN)C(=O)N[C@@H](C)C(=O)N[C@@H](C)C(=O)N[C@@H](CC(C)C)C(=O)O)[C@@H](C)O [RPMTYKAAL] | 11 µM | –
ALNAWVKVV | – | IC50 (soluble HLA-A*0201): 8.51 µM
Env gp160/120 341-349 […] (peptide) | – | logIC50 [2]: 4.36
FPARPQVPL | 4.57 µM | –
FPIRPQVPL | 4.17 µM | –
FSVRPQVPL | 70.8 µM | –
Gag p24 143-151 […] (peptide) | – | logIC50 [2]: 4.34 and 3.92
IGPGIAFYAT | – | IC50 (soluble HLA-A*0201): 813 µM
IGPGRAFYAA | – | IC50 (soluble HLA-A*0201): 30.2 µM
IGPGRAFYAT | – | IC50 (soluble HLA-A*0201): 437 µM

Compound | IC50 (soluble HLA-B*0702) | other results
IGSGRAFYAT | – | IC50 (soluble HLA-A*0201): 3630 µM
IPGPGRHPL | 3.24 µM | –
PITFGWCFKL | – | IC50 (soluble HLA-A*0201): 2240 µM
PLNAWVKVV | – | IC50 (soluble HLA-A*0201): 64.6 µM
PLTLGWCFKL | – | IC50 (soluble HLA-A*0201): 1260 µM
PPRTLNAWV | 16.6 µM | –
PVTFGWCFKL | – | IC50 (soluble HLA-A*0201): 3020 µM
RPITYKAAL [RPITYKAAL] | 7.41 µM | –
RPMTCKGAL [RPMTCKGAL] | 5.5 µM | –
RPMTRKAAL [RPMTRKAAL] | 6.61 µM | –
RPMTWKAAL [RPMTWKAAL] | 7.24 µM | –
RPMTWKGAL [RPMTWKGAL] | 7.08 µM | –
RPMTYKGAL [RPMTYKGAL] | 7.76 µM | –
RPNNDTRKSI | 7.08 µM | –
RPNNNTGKRI | 22.9 µM | –
RPNNNTRKCI | 42.7 µM | –
RPNNNTRKSI | 3.63 µM | –
RPNNNTRKSL | 4.9 µM | –
RPNNNTRKST | 11 µM | –
RPNNNTRRSI | 9.77 µM | –
RPNNSTRKSI | 7.41 µM | –
RPSNNTRKRI | 14.8 µM | –

Compound | IC50 (soluble HLA-B*0702) | other results
RPTNNTRKSI | 5.62 µM | –
RSNNNTRKSI | 21.4 µM | –
SLFNTIATL | – | IC50 (soluble HLA-A*0201): 8.32 µM
SLFNTVAAL [SLFNTVAAL] | – | IC50 (soluble HLA-A*0201): 6.92 µM
SLFNTVATL | – | IC50 (soluble HLA-A*0201): 6.46 µM
SLFNTVATP | – | IC50 (soluble HLA-A*0201): 174 µM
SPRALNAWV | 11.7 µM | –
SPRPLNAWV | 15.1 µM | –
SPRTLDAWV | 24 µM | –
SPRTLSAWV | 1200 µM | –
SPVRPQVPL | 4.68 µM | –
TKGPGIRFPL | 257 µM | –
TLDAWVKVV | – | IC50 (soluble HLA-A*0201): 20 µM
TLSAWVKVV | – | IC50 (soluble HLA-A*0201): 15.1 µM
TPGPGIRFPI | 5.89 µM | –
TPGPGIRYPL | 6.03 µM | –
TPGPGIRYPM | 3.16 µM | –
TPGPGPRYPL | 5.89 µM | –
TPGPGPRYPM | 3.72 µM | –
TPGPGPRYPV | 6.61 µM | –
TPGPGTRYPL | 3.72 µM | –
TSGPGTRFPL | 70.8 µM | –

From PMC4110927 (Virology, 2013)
